For twelve molecules, Ki and Ratio results are on record in ChEMBL document CHEMBL1132843, “A convenient procedure for the synthesis of nonsymmetrical bivalent selective serotonin reuptake inhibitors using polymer-supported reagents” (Bioorg Med Chem Lett, 2000).

Assay [1] addresses Sodium-dependent dopamine transporter (Rattus norvegicus, UniProt P23977). The assay is described as follows: Inhibition of [3H]DA uptake at Dopamine transporter into rat nerve endings (synaptosomes). It counts as subcellular, Brain.
The target in assay [2] is Norepinephrine transporter (Rattus norvegicus, UniProt Q9WTR4). The experiment in a line: Inhibition of norepinephrine transporter by inhibition of [3H]NE uptake into rat nerve endings (synaptosomes). It counts as subcellular, Brain.
Sequence of Norepinephrine transporter (Q9WTR4 whole entry): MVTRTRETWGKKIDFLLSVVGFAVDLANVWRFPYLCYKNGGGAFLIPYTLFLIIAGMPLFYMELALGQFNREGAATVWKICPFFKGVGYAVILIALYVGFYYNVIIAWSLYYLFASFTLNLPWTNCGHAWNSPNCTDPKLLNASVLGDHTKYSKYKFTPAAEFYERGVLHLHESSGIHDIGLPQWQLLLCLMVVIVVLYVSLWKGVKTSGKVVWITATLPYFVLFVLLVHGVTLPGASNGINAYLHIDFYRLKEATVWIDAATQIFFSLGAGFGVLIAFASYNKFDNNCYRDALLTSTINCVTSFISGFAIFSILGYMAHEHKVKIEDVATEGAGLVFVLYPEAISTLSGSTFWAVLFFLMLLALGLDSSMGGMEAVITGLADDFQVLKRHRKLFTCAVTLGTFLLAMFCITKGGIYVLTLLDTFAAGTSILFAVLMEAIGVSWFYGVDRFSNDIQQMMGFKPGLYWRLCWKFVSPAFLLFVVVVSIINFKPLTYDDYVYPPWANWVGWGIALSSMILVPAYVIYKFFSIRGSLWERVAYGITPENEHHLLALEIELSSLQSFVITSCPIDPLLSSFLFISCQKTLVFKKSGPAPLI
The target in assay [3] is Sodium-dependent serotonin transporter (Rattus norvegicus, UniProt P31652). The experiment in a line: Inhibition of [3H]5-HT uptake into rat synaptosomes by Serotonin transporter. It counts as functional, subcellular, Brain.
Sequence of Sodium-dependent serotonin transporter (P31652 whole entry): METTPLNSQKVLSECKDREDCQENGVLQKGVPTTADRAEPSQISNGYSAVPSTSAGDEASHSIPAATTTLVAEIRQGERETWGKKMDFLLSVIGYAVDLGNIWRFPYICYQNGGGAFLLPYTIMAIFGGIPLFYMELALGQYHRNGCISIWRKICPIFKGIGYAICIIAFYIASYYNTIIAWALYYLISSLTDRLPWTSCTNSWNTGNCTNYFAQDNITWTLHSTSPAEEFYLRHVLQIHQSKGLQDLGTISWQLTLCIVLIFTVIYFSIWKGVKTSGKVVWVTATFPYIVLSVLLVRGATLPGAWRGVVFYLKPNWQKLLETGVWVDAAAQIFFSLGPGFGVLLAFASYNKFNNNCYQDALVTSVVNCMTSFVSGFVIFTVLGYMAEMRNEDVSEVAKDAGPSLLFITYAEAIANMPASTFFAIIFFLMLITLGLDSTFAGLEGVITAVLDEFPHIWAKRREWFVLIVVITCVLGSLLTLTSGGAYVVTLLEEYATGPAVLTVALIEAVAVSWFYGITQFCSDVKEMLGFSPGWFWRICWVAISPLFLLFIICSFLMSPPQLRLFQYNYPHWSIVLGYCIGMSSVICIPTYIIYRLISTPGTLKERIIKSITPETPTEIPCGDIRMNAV
Assay [4] deals with Monoamine transporters; serotonin & dopamine (Rattus norvegicus) (UniProt P31652+P23977). The assay is described as follows: Ratio of selective inhibition of dopamine(DA) to serotonin(5-HT) was evaluated. The assay is classed as protein assay.
Sequence of Monoamine transporters; serotonin & dopamine (Rattus norvegicus) (P23977 whole entry, looked up): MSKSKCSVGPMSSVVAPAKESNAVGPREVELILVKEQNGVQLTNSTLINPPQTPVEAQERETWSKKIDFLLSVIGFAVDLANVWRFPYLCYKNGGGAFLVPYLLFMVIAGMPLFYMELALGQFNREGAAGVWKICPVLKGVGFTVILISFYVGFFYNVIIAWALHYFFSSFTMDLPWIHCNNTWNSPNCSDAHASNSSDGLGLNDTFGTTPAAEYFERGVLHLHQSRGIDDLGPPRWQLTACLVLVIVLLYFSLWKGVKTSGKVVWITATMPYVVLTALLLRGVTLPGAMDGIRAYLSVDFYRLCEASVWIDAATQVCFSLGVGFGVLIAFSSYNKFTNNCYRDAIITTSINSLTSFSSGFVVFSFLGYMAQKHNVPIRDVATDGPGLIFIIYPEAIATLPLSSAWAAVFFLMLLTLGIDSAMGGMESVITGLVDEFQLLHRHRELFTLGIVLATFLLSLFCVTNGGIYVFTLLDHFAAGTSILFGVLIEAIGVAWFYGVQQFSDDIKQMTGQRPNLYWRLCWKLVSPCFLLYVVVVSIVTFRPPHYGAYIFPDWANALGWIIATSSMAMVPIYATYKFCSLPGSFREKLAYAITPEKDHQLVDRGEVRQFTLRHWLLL
Sequence of Monoamine transporters; serotonin & dopamine (Rattus norvegicus) (P31652 whole entry, looked up): as the sequence (P31652 whole entry) above

Sequence of Sodium-dependent dopamine transporter (P23977 whole entry): as the sequence (P23977 whole entry, looked up) above

The Ki is a dissociation constant, usually derived from enzyme kinetics or from competition with a known ligand. A high value points to lower affinity. For the molecule `Cc1ccc(C(=O)NCc2ccc(CNC(=O)[C@@H]3CN(C)CC[C@H]3c3ccc(Cl)cc3)cc2)cc1`, the Ki in assay [1] is above 7000 nM; in assay [2], above 1000 nM; in assay [3], 195 nM. The Ratio in assay [4] was above 36.

Turning to `CN1CC[C@@H](c2ccc(Cl)cc2)[C@H](C(=O)NCc2ccc(CNC(=O)c3ccccc3)cc2)C1`, the affinity in assay [3] corresponds to a Ki of 30 nM.

As for `CN1CC[C@@H](c2ccc(Cl)cc2)[C@H](C(=O)NCc2ccc(CNC(=O)CCc3ccccc3)cc2)C1`, the inhibition constant (Ki) is above 2000 nM in assay [1], above 1000 nM in assay [2] and 67 nM in assay [3]. Also, the Ratio in assay [4] is above 30.

Take `CN1CC[C@@H](c2ccc(Cl)cc2)[C@H](C(=O)NCc2ccc(CNC(=O)c3cccc(Cl)c3)cc2)C1`: the Ki is above 4000 nM in assay [1], 1040 nM in assay [2] and 33 nM in assay [3]. Moreover, the Ratio in assay [4] was above 121.

Turning to `CN1CC[C@@H](c2ccc(Cl)cc2)[C@H](C(=O)NCc2ccc(CNC(=O)c3ccc(C(F)(F)F)cc3)cc2)C1`, the inhibition constant Ki in assay [1] is above 4000 nM; in assay [2], 651 nM; in assay [3], 334 nM. Besides, in assay [4], the Ratio was above 12.

With `CN1CC[C@@H](c2ccc(Cl)cc2)[C@H](C(=O)NCc2ccc(CNC(=O)c3cccc(C(F)(F)F)c3)cc2)C1`, the Ki was above 5000 nM in assay [1], 508 nM in assay [2] and 35 nM in assay [3]. The Ratio in assay [4] is above 143.

In assay [3], `CN1CC[C@@H](c2ccc(Cl)cc2)[C@H](C(=O)NCc2ccc(CNC(=O)c3ccc(Cl)cc3Cl)cc2)C1` displayed a Ki of 139 nM.

Turning to `CN1CC[C@@H](c2ccc(Cl)cc2)[C@H](C(=O)NCc2ccc(CNC(=O)[C@@H]3CN(C)CC[C@H]3c3ccc(Cl)cc3)cc2)C1`, the Ki in assay [1] turned out to be 2270 nM; in assay [2], 74 nM; in assay [3] it was 0.32 nM. In addition, in assay [4], the Ratio was above 7000.

With `CN1CC[C@@H](c2ccc(Cl)cc2)[C@H](C(=O)NCc2ccc(CNC(=O)c3ccc(Cl)cc3)cc2)C1`, the Ki in assay [1] came to 3710 nM; in assay [2] it was 1540 nM; in assay [3], 84 nM. Moreover, the Ratio in assay [4] was found to be 44.

As to `CN1CC[C@@H](c2ccc(Cl)cc2)[C@H](C(=O)NCc2ccc(CNC(=O)/C=C/c3ccc(Cl)cc3)cc2)C1`, the values for the Ki in assay [1], in assay [2] and in assay [3] were above 2000 nM, above 2000 nM and 69 nM, respectively. Moreover, in assay [4], the Ratio was above 29.

On to `COc1ccc(C(=O)NCc2ccc(CNC(=O)[C@@H]3CN(C)CC[C@H]3c3ccc(Cl)cc3)cc2)cc1`, for which the Ki in assay [3] was 92 nM.

Take `CN1CC[C@@H](c2ccc(Cl)cc2)[C@H](C(=O)NCCCCCNC(=O)[C@@H]2CN(C)CC[C@H]2c2ccc(Cl)cc2)C1`: the figures for the inhibition constant Ki in assay [1], in assay [2] and in assay [3] were 1960 nM, 399 nM and 1.2 nM, respectively. For the same molecule, the Ratio in assay [4] is 1630.
